Results on 41 compounds are retold here after US12496297B1, “Compositions of autophagy modulating agents and uses thereof” (Washington University, priority 2020, dated 2025).

Structures are written as SMILES.

The test system of this test is α1-antitrypsin Z variant (ATZ). As to the kind of experiment: Steady state levels of ATZ in HTO/Z cell line (immunoblot); activity of G2 analogs. It is filed as cell-based, human. Particulars: for Activity: G2 and G2 analogs, positive activity if shown to have any activity, not quantified; for IC50: TABLE 1, assay not given; for effect on cellular ATZ levels: 48 hrs incubation, immunoblot, FIG. 8 / FIG. 14. As to the method: For experiments with G2 analogs, Tet-off inducible cell lines were cultured in absence of doxycycline for at least 12 days to ensure expression of […] or its variants. The cells were then sub-cultured into separate monolayers in fresh complete growth medium and incubated for 48 hours in the absence or presence of G2 analog. […] All compounds available commercially were purchased except for G2-22, which was synthesized with routine chemistry.
Cells were lysed in NP40 buffer and then separated into insoluble and soluble fractions according to a previously established technique. Samples were subjected to immunoblot analysis for AT and GAPDH. For immmunoblot analysis to detect AT or GAPDH, cells were lysed in 50 mM Tris-HCl, 150 mM NaCl, 1% NP-40, pH 8.0. Protein concentrations were determined by BCA protein assay (Pierce Biotechnology, Rockford, IL). […] The membranes were blocked in 5% milk and then incubated overnight at 4° C. with primary antibody for AT (1:1000, Diasorin), LC3 (1:2000, Sigma), p62 (1:1000, Cell signaling, Danvers, MA), ATG5 (1:1000, Cell signaling), mTOR substrate sampler (1:1000 for all antibodies, Cell signaling). Donkey anti-goat Ig (Jackson Labs, Bar Harbor, ME), goat anti-rabbit lg (1:50,000), or goat anti-mouse Ig (1:50,000) were used as secondary antibodies in TBST at RT, 1 hour. Blots were visualized with ECL or West Femto from Pierce. Membranes were re-probed with GAPDH (1:5000, Sigma) as loading control. Insoluble samples were stained with Gel Code Blue as loading control.

For orientation: IC50 means the concentration at which inhibition is half-maximal. A low value points to inhibition by little substance.

Take `Cn1ccc2cc(Nc3ccccn3)ccc2c1=O` [G2-49, 2-methyl-6-(pyridin-2-ylamino)isoquinolin-1(2H)-one]: the outcome was Inactive. For `Cn1c(=O)ccc2ccc(Nc3ccccn3)cc21` [G2-91, 1-methyl-7-(pyridin-2-ylamino)quinolin-2(1H)-one], the outcome was Inactive.

As to `Cn1ccc2cc(N3CCCC3)ccc2c1=O` [G2-45, 2-methyl-6-(pyrrolidin-1-yl)isoquinolin-1(2H)-one], the result was Active. For the compound `Cc1cn(C)c(=O)c2ccc(Cl)cc12` [G2-38, 6-chloro-2,4-dimethylisoquinolin-1(2H)-one], the result was Inactive. Same read-out and setting: under `CN(C)c1ccc2c(=O)n(C)ccc2c1` [G2-44, 6-(dimethylamino)-2-methylisoquinolin-1(2H)-one] stands “Inactive”; under `COc1ccc(Cl)cc1C(=O)N(C)C` [G2-13, 5-chloro-2-methoxy-N,N-dimethylbenzamide], “Active”; under `Cn1ncc2cc(Cl)ccc2c1=O` [G2-51, 6-chloro-2-methylphthalazin-1(2H)-one], “Active”.

As to `Cn1ccc2cc(N3CC4(COC4)C3)ccc2c1=O` [G2-46, 2-methyl-6-(2-oxa-6-azaspiro[3.3]heptan-6-yl)isoquinolin-1(2H)-one], the result was Inactive.

As to `Cn1ccc2cc(-c3cccnc3)ccc2c1=O` [G2-43, 2-methyl-6-(pyridin-3-yl)isoquinolin-1(2H)-one], the outcome was Inactive. As for `O=c1ccc2ccc(C3CC3)cc2[nH]1` [G2-156, 7-cyclopropylquinolin-2(1H)-one], the outcome was Active and the IC50 lay within 1000 to 10000 nM. Consider `CNC(=O)c1cc(Cl)ccc1OCCC(C)C` [G2-17, 5-chloro-2-(isopentyloxy)-N-methylbenzamide], for which the outcome was Inactive. Regarding `Cn1ccc2cc(-c3ccc(Cl)cc3)ccc2c1=O` [G2-63, 6-(4-chlorophenyl)-2-methylisoquinolin-1(2H)-one], the result was Inactive. As to `CNC(=O)c1ccc(Cl)cc1OC` [G2-55, 4-chloro-2-methoxy-N-methylbenzamide], the result was Inactive. Turning to `O=c1ccc2ccc(F)cc2[nH]1` [G2-124, 7-fluoroquinolin-2(1H)-one], the outcome was Active and the IC50 lay in the range of 1000 to 10000 nM.

As for `Cn1c(=O)ccc2cc(Cl)ccc21` [G2-58, 6-chloro-1-methylquinolin-2(1H)-one], the result was Inactive. The same measure, in the same setting: under `Cn1ccc2cc(-c3ccncc3)ccc2c1=O` [G2-42, 2-methyl-6-(pyridin-4-yl)isoquinolin-1(2H)-one] stands “Active”; under `CNC(=O)c1cccc(Cl)c1OC` [G2-40, 3-chloro-2-methoxy-N-methylbenzamide], “Inactive”; under `CNC(=O)c1cc(Cl)ccc1OC1CCN(C2CCCC2)CC1` [G2-12-2, 5-chloro-2-((1-cyclopentylpiperidin-4-yl)oxy)-N-methylbenzamide], “Inactive”. On to `CCCCCCOc1cc(Cl)c2ccc(=O)[nH]c2c1` [G-211, 5-chloro-7-(hexyloxy)quinolin-2(1H)-one], for which the result was Active and the IC50 fell in the range of 1000 to 10000 nM. Regarding `O=c1[nH]ccc2cc(Cl)ccc12` [G2-25, 6-chloroisoquinolin-1(2H)-one], the outcome was Active. For `Cn1ccc2cc(N3CCC(c4ccccc4)CC3)ccc2c1=O` [G2-62, 2-methyl-6-(4-phenylpiperidin-1-yl)isoquinolin-1(2H)-one], the outcome was Inactive. In the case of `O=c1ccc2ccc(Cl)cc2[nH]1` [G2-69, 7-chloroquinolin-2(1H)-one], the Activity result was “Active (Most Highly Active)” and the IC50 is 100 to 1000 nM. In the case of `Cn1ccc2cc(-c3ccccn3)ccc2c1=O` [G2-39, 2-methyl-6-(pyridin-2-yl)isoquinolin-1(2H)-one], the outcome was Inactive. On the same count and under the same terms, the same measure for `Cn1ccc2cccc(Cl)c2c1=O` [G2-24, 8-chloro-2-methylisoquinolin-1(2H)-one]: “Inactive”; for `Cn1ccc2cc(S(C)(=O)=O)ccc2c1=O` [G2-29, 2-methyl-6-(methylsulfonyl)isoquinolin-1(2H)-one]: “Active”. As for `Cn1ccc2cc(Nc3ccccc3)ccc2c1=O` [G2-47, 2-methyl-6-(phenylamino)isoquinolin-1(2H)-one], the result was Inactive.

`Cn1c(=O)ccc2cc(Cl)ccc21` [G2-37, 6-chloro-1-methylquinolin-2(1H)-one]: the result was Active. Take `O=c1c2ccc(Cl)cc2ccn1-c1ccccc1` [G2-53, 6-chloro-2-phenylisoquinolin-1(2H)-one]: the result was Inactive. Take `O=c1ccc2c(-c3ncccn3)cc(Cl)cc2[nH]1` [G2-197, 7-chloro-5-(pyrimidin-2-yl)quinolin-2(1H)-one]: the result was Active and the IC50 lay in the range of 1000 to 10000 nM. For `O=c1ccc2c(N3CCCCC3)cc(Cl)cc2[nH]1` [G2-195, 7-chloro-5-(piperidin-1-yl)quinolin-2(1H)-one], the result was Active and the IC50 lay in the range of 1000 to 10000 nM. As for `Cn1c(=O)ccc2ccc(-c3cccnc3)cc21` [G2-83, 1-methyl-7-(pyridin-3-yl)quinolin-2(1H)-one], the outcome was Inactive. `Cn1ccc2cc(N3CCCCC3)ccc2c1=O` [G2-61, 2-methyl-6-(piperidin-1-yl)isoquinolin-1(2H)-one]: the outcome was Inactive.

On to `NC(=O)c1cc(Cl)ccc1OC(F)(F)F` [G2-6, 5-chloro-2-(trifluoromethoxy)benzamide], for which the result was Inactive. Still for that read-out and setting: under `Cn1cnc2cc(Cl)ccc2c1=O` [G2-27, 7-chloro-3-methylquinazolin-4(3H)-one] stands “Inactive”; under `Cn1ccc2cc(C#N)ccc2c1=O` [G2-31, 2-methyl-1-oxo-1,2-dihydroisoquinoline-6-carbonitrile], “Inactive”. For the compound `O=C(c1cc(Cl)c2ccc(=O)[nH]c2c1)N1CCCCC1` [G2-237, 5-chloro-7-(piperidine-1-carbonyl)quinolin-2(1H)-one], the “effect on cellular ATZ levels” value is “reduce ATZ levels in a dose-dependent manner”, the result was Active and the IC50 was 100 to 1000 nM. As for `CN1Cc2cc(Cl)ccc2C1=O` [G2-28, 5-chloro-2-methylisoindolin-1-one], the result was Active.

Turning to `Cn1c(=O)ccc2ccc(Cl)cc21` [G2-54, 7-chloro-1-methylquinolin-2(1H)-one], the Activity result was “Active (Highly Active)”.

For `O=c1ncc2cc(Cl)ccc2[nH]1` [G2-71, 6-chloroquinazolin-2(1H)-one], the outcome was Inactive. `O=c1ccc2c(-c3ccccc3)cc(Cl)cc2[nH]1` [G2-196, 7-chloro-5-phenylquinolin-2(1H)-one]: the result was Active and the concentration for half-maximal inhibition (IC50) fell in the range of 1000 to 10000 nM. For `CCCCCCOc1cc(Cl)cc2[nH]c(=O)ccc12` [G2-218, 7-chloro-5-(hexyloxy)quinolin-2(1H)-one], the “effect on cellular ATZ levels” value is given as “reduce ATZ levels in a dose-dependent manner”, the outcome was Active and the IC50 lay within 100 to 1000 nM.
